# Results from patent publication US7402548B2, “Benzoxazole compounds, process for producing the same and herbicides” (Kyoyu Agri Co., Ltd., priority 2000, dated 2008).
# Key:
# annual bluegrass [1] = test: Soil treatment test for upland field; format: in vivo, Poa annua; design: key: 0 = normal development, 5 = all killed; conditions: 500 g/ha, 3 weeks, glass house 25° C.
# Summary of the method: (§1)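 Using a pre-emergence soil application at 500 g/ha, treated pots were held 3 weeks in a glass house averaging 25° C. Injury was graded on a 0–5 scale against non-treated pots; "-" marks entries not investigated.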
# annual bluegrass [2] = test: Foliar spread test for upland field; format: in vivo, Poa annua; design: key: 0 = normal development, 5 = all killed (6 ranks vs. untreated); conditions: foliar spray, 500 ppm, 3 weeks, glass house 25° C.
# Summary of the method: (§2)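 Scores on a 0–5 scale (0 normal development, 5 all killed), relative to untreated controls, were taken 3 weeks post-treatment in a 25 °C glass house. Treatment was a uniform foliar spray at 500 ppm (0.5% surfactant) onto roughly 2-week-old soil-grown plants.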
# common lambsquarters [3] = test: Soil treatment test for upland field; format: in vivo, Chenopodium album; design: key: 0 = normal development, 5 = all killed; conditions: 500 g/ha, 3 weeks, glass house 25° C.
# Summary of the method: as §1
# barnyard grass [4] = test: Herbicidal test for paddy field; format: in vivo, Eschinochloa crusgalli; conditions: 500 g/ha, dropwise addition to paddy water at 1.5 leaf stage of barnyard grass; glass house 25° C., 3 weeks; rank 0-5 vs non-treated district
# Description: (§3) Wagner pots, each having an area of 1/5000 are, were packed with Ube soil (alluvial soil) and planted with seeds or tubers of young rice plant, barnyard grass, bulrush, Cyperus serotinus Rottb., arrowhead and monochoria. Then, the pots were filled with water to a depth of 3 cm.
# (§4) Each wettable powder of the desired Compounds (I) shown in Tables 1 to 21, 24, 25, 28 and 29 prepared in accordance with Example 2 was diluted with water containing a surfactant (0.05%) and subjected to dropwise addition treatment by using pipet so that an effective concentration of the compound (I) in each herbicide became 500 g/ha at 1.5 leaf stage of barnyard grass.
# (§5) These plants were controlled in a glass house at an average temperature of 25° C. for 3 weeks, and then herbicidal effects thereof were investigated.
# (§6) The herbicidal effects are evaluated according to the following 6 ranks as compared with non-treated district. (0: normal development, 1: Less damaged, 2: Slightly damaged, 3: Moderately damaged, 4: Severely damaged, 5: All killed). Incidentally, “-” in the column means not investigated.
# Cyperus serotinus Rottb. = test: Herbicidal test for paddy field; format: in vivo; conditions: 500 g/ha, dropwise addition to paddy water at 1.5 leaf stage of barnyard grass; glass house 25° C., 3 weeks; rank 0-5 vs non-treated district
# Description: as §3, §4, §5, §6
# barnyardgrjass = test: Foliar spread test for upland field; format: in vivo, Eschinochloa crusgalli; design: key: 0 = normal development, 5 = all killed (6 ranks vs. untreated); conditions: foliar spray, 500 ppm, 3 weeks, glass house 25° C.
# Summary of the method: as §2
# green foxtail [5] = test: Foliar spread test for upland field; format: in vivo, Setaria viridis; design: key: 0 = normal development, 5 = all killed (6 ranks vs. untreated); conditions: foliar spray, 500 ppm, 3 weeks, glass house 25° C.
# Summary of the method: as §2
# blackgrass [6] = test: Soil treatment test for upland field; format: in vivo, Alopecurus aegualis; design: key: 0 = normal development, 5 = all killed; conditions: 500 g/ha, 3 weeks, glass house 25° C.
# Summary of the method: as §1
# livid amaranth [7] = test: Foliar spread test for upland field; format: in vivo, Amaranthus lividus; design: key: 0 = normal development, 5 = all killed (6 ranks vs. untreated); conditions: foliar spray, 500 ppm, 3 weeks, glass house 25° C.
# Summary of the method: as §2
# wheat [8] = test: Soil treatment test for upland field; format: in vivo; design: key: 0 = normal development, 5 = all killed; conditions: 500 g/ha, 3 weeks, glass house 25° C.
# Summary of the method: as §1
# sugar beat [9] = test: Soil treatment test for upland field; format: in vivo; design: key: 0 = normal development, 5 = all killed; conditions: 500 g/ha, 3 weeks, glass house 25° C.
# Summary of the method: as §1
# corn [10] = test: Soil treatment test for upland field; format: in vivo; design: key: 0 = normal development, 5 = all killed; conditions: 500 g/ha, 3 weeks, glass house 25° C.
# Summary of the method: as §1
# soybean [11] = test: Soil treatment test for upland field; format: in vivo; design: key: 0 = normal development, 5 = all killed; conditions: 500 g/ha, 3 weeks, glass house 25° C.
# Summary of the method: as §1
# solgum [12] = test: Soil treatment test for upland field; format: in vivo; design: key: 0 = normal development, 5 = all killed; conditions: 500 g/ha, 3 weeks, glass house 25° C.
# Summary of the method: as §1
# livid amaranth [13] = test: Soil treatment test for upland field; format: in vivo, Amaranthus lividus; design: key: 0 = normal development, 5 = all killed; conditions: 500 g/ha, 3 weeks, glass house 25° C.
# Summary of the method: as §1
# Large crabgrass [14] = test: Foliar spread test for upland field; format: in vivo, Digitaria adscendens; design: key: 0 = normal development, 5 = all killed (6 ranks vs. untreated); conditions: foliar spray, 500 ppm, 3 weeks, glass house 25° C.
# Summary of the method: as §2
# common lambsquarters [15] = test: Foliar spread test for upland field; format: in vivo, Chenopodium album; design: key: 0 = normal development, 5 = all killed (6 ranks vs. untreated); conditions: foliar spray, 500 ppm, 3 weeks, glass house 25° C.
# Summary of the method: as §2
# morning glory [16] = test: Foliar spread test for upland field; format: in vivo, Ipomoea spps.; design: key: 0 = normal development, 5 = all killed (6 ranks vs. untreated); conditions: foliar spray, 500 ppm, 3 weeks, glass house 25° C.
# Summary of the method: as §2
# Large crabgrass [17] = test: Soil treatment test for upland field; format: in vivo, Digitaria adscendens; design: key: 0 = normal development, 5 = all killed; conditions: 500 g/ha, 3 weeks, glass house 25° C.
# Summary of the method: as §1
# wheat [18] = test: Foliar spread test for upland field; format: in vivo; design: key: 0 = normal development, 5 = all killed (6 ranks vs. untreated); conditions: foliar spray, 500 ppm, 3 weeks, glass house 25° C.
# Summary of the method: as §2
# sugar beat [19] = test: Foliar spread test for upland field; format: in vivo; design: key: 0 = normal development, 5 = all killed (6 ranks vs. untreated); conditions: foliar spray, 500 ppm, 3 weeks, glass house 25° C.
# Summary of the method: as §2
# corn [20] = test: Foliar spread test for upland field; format: in vivo; design: key: 0 = normal development, 5 = all killed (6 ranks vs. untreated); conditions: foliar spray, 500 ppm, 3 weeks, glass house 25° C.
# Summary of the method: as §2
# soybean [21] = test: Foliar spread test for upland field; format: in vivo; design: key: 0 = normal development, 5 = all killed (6 ranks vs. untreated); conditions: foliar spray, 500 ppm, 3 weeks, glass house 25° C.
# Summary of the method: as §2
# solgum [22] = test: Foliar spread test for upland field; format: in vivo; design: key: 0 = normal development, 5 = all killed (6 ranks vs. untreated); conditions: foliar spray, 500 ppm, 3 weeks, glass house 25° C.
# Summary of the method: as §2
# cotton = test: Foliar spread test for upland field; format: in vivo; design: key: 0 = normal development, 5 = all killed (6 ranks vs. untreated); conditions: foliar spray, 500 ppm, 3 weeks, glass house 25° C.
# Summary of the method: as §2
# velvetleaf [23] = test: Foliar spread test for upland field; format: in vivo, Abutilon theophrasti; design: key: 0 = normal development, 5 = all killed (6 ranks vs. untreated); conditions: foliar spray, 500 ppm, 3 weeks, glass house 25° C.
# Summary of the method: as §2
# morning glory [24] = test: Soil treatment test for upland field; format: in vivo, Ipomoea spps.; design: key: 0 = normal development, 5 = all killed; conditions: 500 g/ha, 3 weeks, glass house 25° C.
# Summary of the method: as §1
# barnyard grass [25] = test: Soil treatment test for upland field; format: in vivo, Eschinochloa crusgalli; design: key: 0 = normal development, 5 = all killed; conditions: 500 g/ha, 3 weeks, glass house 25° C.
# Summary of the method: as §1
# green foxtail [26] = test: Soil treatment test for upland field; format: in vivo, Setaria viridis; design: key: 0 = normal development, 5 = all killed; conditions: 500 g/ha, 3 weeks, glass house 25° C.
# Summary of the method: as §1
# bulrush = test: Herbicidal test for paddy field; format: in vivo, Scrips juncoides; conditions: 500 g/ha, dropwise addition to paddy water at 1.5 leaf stage of barnyard grass; glass house 25° C., 3 weeks; rank 0-5 vs non-treated district
# Description: as §3, §4, §5, §6
# velvetleaf [27] = test: Soil treatment test for upland field; format: in vivo, Abutilon theophrasti; design: key: 0 = normal development, 5 = all killed; conditions: 500 g/ha, 3 weeks, glass house 25° C.
# Summary of the method: as §1
# blackgrass [28] = test: Foliar spread test for upland field; format: in vivo, Alopecurus aegualis; design: key: 0 = normal development, 5 = all killed (6 ranks vs. untreated); conditions: foliar spray, 500 ppm, 3 weeks, glass house 25° C.
# Summary of the method: as §2
Structure (SMILES),Effects Annual bluegrass (annual bluegrass [1]),Effects Annual bluegrass (annual bluegrass [2]),Effects Common lambsquarters (common lambsquarters [3]),Effects Barnyardgrass (barnyard grass [4]),Effects Barnyardgrass (barnyardgrjass),Effects Green foxtail (green foxtail [5]),Effects Blackgrass (blackgrass [6]),Effects Livid amaranth (livid amaranth [7]),Effects Wheat (wheat [8]),Effects Sugar beat (sugar beat [9]),Effects Corn (corn [10]),Effects Solgum (solgum [12]),Effects Livid amaranth (livid amaranth [13]),Effects Large crabgrass (Large crabgrass [14]),Effects Common lambsquarters (common lambsquarters [15]),Effects Large crabgrass (Large crabgrass [17]),Effects Morning glory (morning glory [24]),Effects Barnyardgrass (barnyard grass [25]),Effects Green foxtail (green foxtail [26]),Effects Bulrush (bulrush),further results
CCC(=Cc1cccc(C(F)(F)F)c1)c1nc2cc(C(F)(F)F)ccc2o1 [I-c-86],5,4,5,5,2,4,5,5,0,5,1,1,5,4,5,5,5,5,5,4,Effects Cyperus serotinus Rottb. (Cyperus serotinus Rottb.): 3; Effects Soybean (soybean [11]): 0; Effects Morning glory (morning glory [16]): 5; Effects Wheat (wheat [18]): 2; Effects Sugar beat (sugar beat [19]): 4; Effects Corn (corn [20]): 3; Effects Soybean (soybean [21]): 5; Effects Solgum (solgum [22]): 2; Effects Sotton (cotton): 4; Effects Velvetleaf (velvetleaf [23]): 3; Effects Velvetleaf (velvetleaf [27]): 5; Effects Blackgrass (blackgrass [28]): 3
CCC(=Cc1cccc(C(F)(F)F)c1)c1nc2cc(F)ccc2o1 [I-c-42],5,3,5,5,2,4,5,5,0,5,1,5,5,4,5,5,3,5,5,5,Effects Morning glory (morning glory [16]): 4; Effects Wheat (wheat [18]): 2; Effects Sugar beat (sugar beat [19]): 4; Effects Corn (corn [20]): 3; Effects Soybean (soybean [21]): 5; Effects Solgum (solgum [22]): 2; Effects Sotton (cotton): 3; Effects Velvetleaf (velvetleaf [23]): 3; Effects Velvetleaf (velvetleaf [27]): 5; Effects Blackgrass (blackgrass [28]): 3
FC(F)(F)c1cccc(C=Cc2nc3ccccc3o2)c1 [I-c-1],5,1,5,3,1,3,5,4,0,–,1,1,5,3,3,5,1,5,5,3,Effects Cyperus serotinus Rottb. (Cyperus serotinus Rottb.): 3; Effects Morning glory (morning glory [16]): 5; Effects Wheat (wheat [18]): 1; Effects Sugar beat (sugar beat [19]): 3; Effects Corn (corn [20]): 2; Effects Soybean (soybean [21]): 5; Effects Solgum (solgum [22]): 1; Effects Sotton (cotton): 2; Effects Velvetleaf (velvetleaf [23]): 2; Effects Blackgrass (blackgrass [28]): 1
CCCC(=Cc1cccc(C(F)(F)F)c1)c1nc2cc(C#N)c(Cl)cc2o1 [I-c-145],5,3,5,4,2,5,5,5,1,5,0,1,5,3,5,5,5,4,5,3,Effects Soybean (soybean [11]): 0; Effects Morning glory (morning glory [16]): 5; Effects Wheat (wheat [18]): 2; Effects Sugar beat (sugar beat [19]): 3; Effects Corn (corn [20]): 2; Effects Soybean (soybean [21]): 5; Effects Solgum (solgum [22]): 2; Effects Sotton (cotton): 4; Effects Velvetleaf (velvetleaf [23]): 3; Effects Velvetleaf (velvetleaf [27]): 5; Effects Blackgrass (blackgrass [28]): 2
CCC(=Cc1cccc(C(F)(F)F)c1)c1nc2cc(C#N)c(Cl)cc2o1 [I-c-143],5,–,5,5,–,–,4,–,1,5,1,3,5,–,–,5,5,4,5,5,Effects Soybean (soybean [11]): 3; Effects Velvetleaf (velvetleaf [27]): 5
CCC(=Cc1cccc(C(F)(F)F)c1)c1nc2cc(C)ccc2o1 [I-c-76],5,2,5,4,2,4,5,5,0,0,1,3,5,4,4,5,1,4,5,3,Effects Morning glory (morning glory [16]): 5; Effects Wheat (wheat [18]): 2; Effects Sugar beat (sugar beat [19]): 4; Effects Corn (corn [20]): 2; Effects Soybean (soybean [21]): 5; Effects Solgum (solgum [22]): 2; Effects Sotton (cotton): 3; Effects Velvetleaf (velvetleaf [23]): 3; Effects Velvetleaf (velvetleaf [27]): 5; Effects Blackgrass (blackgrass [28]): 2
